{
  "source": "patent US11957665B1",
  "about": "“Pharmaceutical composition for preventing or treating alopecia areata acting as a functional antagonist for S1PR1 and S1PR4” (NEXTGEN BIOSCIENCE CO., LTD., priority 2022, dated 2024)",
  "key": {"beagle dogs": {"system": "beagle dogs", "experiment": "Effect on the cardiovascular system (heart rate, general symptoms) in beagle dogs", "type": "in vivo", "method": "NXC736 was orally administered to four unanesthetized and unrestrained male beagle dogs (ORIENTBIO Inc., Republic of Korea) implanted with remote transmitters. Afterwards, the heart rate of four beagle dogs was measured to evaluate the effect of NXC736 on the cardiovascular system, and the occurrence of abnormal symptoms was visually checked.\nIn this experiment, 4 beagle dogs were administered with 0.5% MC aqueous solution, which is an excipient, as a control substance, and the heart rate was measured, and after 1 week, NXC736 was administered at 12.5 mg/kg and the heart rate was measured, after 1 week, NXC736 was administered at 25 mg/kg and the heart rate was measured, and after 1 week, NXC736 was administered at 50 mg/kg and the heart rate was measured.\nThe heart rate of beagle dogs was specifically measured at 0 hours before administration of the test substance, and 0.5 hours, 1 hour, 2 hours, 3 hours, 4 hours, 6 hours, 8 hours, 12 hours, and 24 hours after administration of the test substance."}, "[1]": {"molecular_target": "T1, hERG potassium ion channel (Homo sapiens, UniProt Q12809)", "T1 sequence (Q12809 whole entry)": "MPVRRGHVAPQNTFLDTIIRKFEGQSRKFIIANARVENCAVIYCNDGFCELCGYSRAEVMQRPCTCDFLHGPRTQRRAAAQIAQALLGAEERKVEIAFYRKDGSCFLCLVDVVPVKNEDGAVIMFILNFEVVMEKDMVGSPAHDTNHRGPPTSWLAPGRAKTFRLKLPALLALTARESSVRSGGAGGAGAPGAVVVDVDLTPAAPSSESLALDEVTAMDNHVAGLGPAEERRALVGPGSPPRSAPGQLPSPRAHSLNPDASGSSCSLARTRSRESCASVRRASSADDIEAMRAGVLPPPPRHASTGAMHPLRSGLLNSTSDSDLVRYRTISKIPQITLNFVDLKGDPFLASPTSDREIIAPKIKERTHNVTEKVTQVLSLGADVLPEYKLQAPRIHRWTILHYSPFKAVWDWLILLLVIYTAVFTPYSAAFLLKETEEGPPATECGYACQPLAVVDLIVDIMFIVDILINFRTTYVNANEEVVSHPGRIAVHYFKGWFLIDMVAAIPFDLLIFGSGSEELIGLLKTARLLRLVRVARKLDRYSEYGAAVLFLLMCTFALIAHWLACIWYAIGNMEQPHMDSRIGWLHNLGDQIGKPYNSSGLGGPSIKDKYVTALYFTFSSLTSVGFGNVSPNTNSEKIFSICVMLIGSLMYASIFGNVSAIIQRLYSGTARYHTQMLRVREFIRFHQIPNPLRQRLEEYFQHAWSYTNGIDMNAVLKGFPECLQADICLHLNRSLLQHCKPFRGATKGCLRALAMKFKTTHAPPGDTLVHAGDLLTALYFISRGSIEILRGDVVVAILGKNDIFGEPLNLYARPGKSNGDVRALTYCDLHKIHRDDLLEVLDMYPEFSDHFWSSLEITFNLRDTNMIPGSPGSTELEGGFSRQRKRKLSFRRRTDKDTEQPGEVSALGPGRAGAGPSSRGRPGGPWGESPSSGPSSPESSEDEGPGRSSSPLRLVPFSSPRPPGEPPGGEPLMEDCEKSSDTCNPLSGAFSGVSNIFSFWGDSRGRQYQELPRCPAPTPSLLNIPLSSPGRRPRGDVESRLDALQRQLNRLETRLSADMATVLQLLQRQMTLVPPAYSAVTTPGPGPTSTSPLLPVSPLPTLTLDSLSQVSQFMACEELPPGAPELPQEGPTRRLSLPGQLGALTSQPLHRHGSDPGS", "experiment": "cell-based"}, "[2]": {"system": "alopecia areata mouse model C3H/HeJ", "experiment": "Efficacy in suppressing alopecia areata in C3H/HeJ alopecia areata mouse model", "type": "in vivo, C3H/HeJ mice", "method": "The effectiveness of NXC736 for alopecia areata was evaluated using the alopecia areata mouse model C3H/HeJ (Jackson Lab, Saeron Bio). […] Conditions for the animal breeding room include a temperature of 23±3° C., relative humidity of 50±10%, and day and night maintained at 12-hour intervals, and experimental animals were raised in isolation breeding boxes (ThreeShine), and fed with food and drinking water for experimental animals ad libitum.\nMice were divided into two groups: the control group (sterilized distilled water administration group) and the NXC736 administration experimental group, five C3H/HeJ mice were randomly assigned per group, and from the time point lymph node cells were proliferated and injected into C3H/HeJ mice aged 10 to 16 weeks where no alopecia was induced, NXC736 was orally administered at 30 mg/kg for the NXC736 administration group and the same volume of sterilized distilled water was orally administered for the control group for 12 weeks once a day at the same time, respectively, and then the area of alopecia areata (AA) lesion area and disease free ratio were measured at intervals of 2 weeks.\nThe alopecia areata lesion area was measured using the Image J program (Version 1.44p) after taking a photograph.\nThe disease free ratio was defined as the proportion of mice administered the drug and not showing alopecia symptoms at a specified time point."}, "[3]": {"molecular_target": "T1, hERG potassium ion channel", "experiment": "Effect on hERG channel currents in HEK-293 cells overexpressing the hERG gene"}, "[4]": {"system": "T cells, CD4 T cells, CD8 T cells", "experiment": "Inhibitory effect of NXC736 on rat immune cells (flow cytometry of lymphocytes in peripheral blood and bone marrow)", "type": "in vivo, SD rats", "conditions": "10 mg/kg oral once, PB", "method": "To evaluate the effect of NXC736 on rat immune cells, NXC736 was administered orally once at 10 mg/kg/day to SD rats (Daehan BioLink (DBL), 3 control groups, and 15 test groups), and then measurements were performed by classifying into T cells, CD4 T cells, and CD8 T cells in peripheral bloodstream (PB) and bone marrow (BM) using the same antibodies as in Experimental Example 1. Specifically, measurements were made using a flow cytometer (FC500, Beckman coulter) at 0, 4, 8, 12, 24, 36, and 48 hours after administration of the test substance, the analysis was performed using FlowJo™ V10 (Flowjo, LLC), and the numbers of T cells, CD4 T cells, and CD8 T cells were expressed as % of control based on time 0."}, "[5]": {"system": "T cells, CD4 T cells, CD8 T cells", "experiment": "Inhibitory effect of NXC736 on mouse immune cells (flow cytometry of lymphocytes in peripheral blood and bone marrow)", "type": "in vivo, C57BL/6 mice", "conditions": "3 mg/kg oral once", "method": "To determine whether NXC736, which acts on the S1P receptor, also has an effect on lymphocyte reduction, the effect of NXC736 on immune cells was evaluated. After oral administration of NXC736 once at 3 mg/kg/day to C57BL/6 mice (Daehan BioLink (DBL), 4 mice in the control group and 18 mice in the test group), the change in lymphocytes in peripheral blood (PB), bone marrow (BM) was measured by classifying into T cells (using anti-mouse CD3ε-PE/cyanine7 antibody), CD4 T cells (using anti-mouse CD4-FITC antibody), and CD8 T cells (using anti-mouse CD8a-PerCP antibody). Specifically, measurements were made using a flow cytometer (FC500, Beckman coulter) at 0, 4, 8, 12, 24, and 36 hours after administration of the test substance, the analysis was performed using FlowJo™ V10 (Flowjo, LLC), and the numbers of T cells, CD4 T cells, and CD8 T cells were expressed as % of control based on time 0."}},
  "data": [
    {"smiles": "CCCCCCCCCCn1cc(CCC(N)(CO)CO)nn1", "note": "[NXC736, 2-amino-2-(2-(1-decyl-1H-1,2,3-triazol-4-yl)ethyl)propane-1,3-diol]", "values": [
      {"measurement": "heart rate", "setting": "beagle dogs; oral doses of 12.5, 25 and 50 mg/kg, 0-24 hours", "result": "no change in heart rate"},
      {"measurement": "general symptoms, naked eye", "setting": "beagle dogs; oral doses of 12.5, 25 or 50 mg/kg", "result": "no abnormal symptoms were observed"},
      {"measurement": "IC50", "setting": "[1]", "result": 12.9, "unit": "µM"},
      {"measurement": "time to observe 100% alopecia areata (disease free ratio)", "setting": "[2]; 30 mg/kg oral once a day", "result": "up to 84 days"},
      {"measurement": "alopecia areata (AA) lesion area", "setting": "[2]; 30 mg/kg oral once a day for 12 weeks", "result": "approximately 10%"},
      {"measurement": "hERG potassium channel activity, conclusion", "setting": "[3]", "result": "does not inhibit hERG potassium channel activity"},
      {"measurement": "time for which the immunosuppressive effect was maintained", "setting": "[4]", "result": "up to 24 hours"},
      {"measurement": "time until which the decrease of T cells in PB was maintained", "setting": "[5]", "result": "≤ 12", "unit": "h"},
      {"measurement": "T cells in PB after recovery (% of control)", "setting": "[5]; at 36 hours", "result": 88.9, "unit": "%"}
    ]}
  ]
}
